{
  "source": "patent US20050227302A1",
  "about": "“Induction of apoptosis via ARTS-IAP complexes” (priority 2004, published 2005)",
  "key": {"XIAP [1]": {"test_system": "XIAP", "test": "Co-immunoprecipitation of ARTS-XIAP complexes in NRP154 cells", "format": "cell-based, rat", "experimental": "(§1) Protein extracts were prepared with lysis buffer (150 mM NaCl, 50 mM Tris-HCl (pH 8), 1% NP-40, 0.5% deoxycholate acid) with protease inhibitors. Lysates containing equal amounts of total protein were pre-cleared overnight with 1 mg mouse IgG (Sigma) coupled with protein A/G-Sepharose mix (Amersham Biosciences) and the beads centrifuged. Supernatants were immuno-precipitated using 5 μl of anti-ARTS antibody for 4 h, anti-XIAP antibody, rabbit anti-myc antibody, or mouse IgG (negative control). Protein A/G Sepharose beads were added for 1 hour and washed four times with PBS. Antibodies against XIAP (as above), Myc (Santa Cruz), or anti-ARTS (NT) antibodies directed against the common N′ terminus of ARTS and H5 (ProSci Incorporated) were used for Western blot."}, "COS-7 cells": {"test_system": "COS-7 cells", "test": "Immunofluorescence of ARTS and XIAP localization in COS-7 cells", "format": "cell-based, African Green Monkey", "conditions": "for ARTS and XIAP co-localization: COS-7 cells transfected with AU5-ARTS and pcDNA3-Myc-XIAP, 100 mM etoposide", "experimental": "Cells were fixed with 4% paraformaldehyde in PBS for 20 min at room temperature, washed with PBS, permeabilized with 0.5% Triton-X in PBS for 5 min, and incubated with primary antibodies for 2 hours at room temperature (rabbit polyclonal anti-ARTS (1:20,000; Sigma), monoclonal anti-ARTS, and/or monoclonal anti-XIAP (1:500; used in subsequent Examples). Cells were washed three times with PBS/0.1% Triton-X and incubated with FITC conjugated anti-mouse and Rhodamin^TX-conjugated anti-rabbit secondary antibodies (Jackson). Images were analyzed using a confocal laser microscope (Zeiss LSM 510). Mitochondria were visualized with MitoTracker® Red CMXRos (Molecular Probes/Invitrogen).\nFor caspase inhibition, we added […] of BOC-Asp(Ome)CH2F (Enzyme Systems Products) one hour prior to addition of the apoptotic agents."}, "XIAP [2]": {"test_system": "XIAP", "test": "Co-immunoprecipitation of ARTS-XIAP complexes in COS-7 cells", "format": "cell-based, African Green Monkey", "experimental": "as §1"}, "ARTS": {"test_system": "ARTS", "test": "Cell fractionation, ARTS levels in sub-cellular fractions", "format": "cell-based", "conditions": "treated with staurosporine (STS) for 1 hour", "experimental": "Cells were homogenized in 20 mM HEPES-KOH, pH 7.5, 10 mM KCl, 1.5 mM MgCl2, 1 mM sodium EDTA, 1 mM sodium EGTA, and 1 mM dithiothreitol in the presence of 250 mM sucrose and protease inhibitors. Homogenates were centrifuged at 500×g for 5 min at 4° C., and the supernatant was centrifuged at 10,000×g for 20 min to obtain mitochondria. The pellet was washed and solubilized in TNC buffer (10 mM Tris acetate, pH 8.0, 0.5% Nonidet P-40 (NP-40), 5 mM CaCl2) with protease inhibitors. Protein concentration was determined with a Micro-BCA kit (Pierce)."}, "XIAP [3]": {"target": "T1, XIAP (Homo sapiens, UniProt P98170)", "T1 construct": "made in house; host or cells: bacteria (pGEX-XIAP plasmid obtained from Dr. Colin S. Duckett)", "T1 sequence (P98170 whole entry, the tested form may be a part)": "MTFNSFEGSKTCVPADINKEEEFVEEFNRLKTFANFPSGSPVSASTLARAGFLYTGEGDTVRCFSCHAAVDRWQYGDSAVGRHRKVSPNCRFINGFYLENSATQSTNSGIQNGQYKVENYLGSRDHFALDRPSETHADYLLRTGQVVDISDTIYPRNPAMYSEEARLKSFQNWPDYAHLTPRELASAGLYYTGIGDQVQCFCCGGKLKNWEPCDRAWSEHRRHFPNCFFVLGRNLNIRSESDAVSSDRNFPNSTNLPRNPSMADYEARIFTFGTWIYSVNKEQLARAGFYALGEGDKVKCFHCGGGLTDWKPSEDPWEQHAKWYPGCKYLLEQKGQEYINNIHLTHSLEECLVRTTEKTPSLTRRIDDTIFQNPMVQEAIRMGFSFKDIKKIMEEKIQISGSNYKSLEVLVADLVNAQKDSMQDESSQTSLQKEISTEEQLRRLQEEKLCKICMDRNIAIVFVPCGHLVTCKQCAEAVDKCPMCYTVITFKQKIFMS", "test": "GST pull-down assay of ARTS and XIAP", "format": "binding", "conditions": "lysates of COS-7 cells transfected with AU5-tagged construct; Western blot anti-AU5", "description": "For the glutathione-S-transferase (GST)-pull down assays, ARTS was subcloned into the pGEX 4T™ (Pharmacia Biotech) construct; GST-ARTS fusion protein was generated by Polymerase Chain Reaction (PCR) using the following primers: • BamHI-5′-[…]-3′ (SEQ ID No: 4) and • EcoRI-5′ […]-3′ (SEQ ID No: 5) and cloned into BamHI and EcoRI sites in pGEX 4T. Preparation of Beads\nFor in vitro binding studies, recombinant GST-ARTS or GST-XIAP fusion proteins were purified from bacteria. After sonication, 0.1% Triton X-100 and protease inhibitors (Mini-Complete™, Roche) were added to the bacterial extract followed by 10,000 rotations per minute (RPM) centrifugation. Supernatants of bacterial extracts were collected and incubated in the presence of glutathione-Sepharose 4B beads (Amersham Biosciences) for 30 minute at 4° C. The beads were washed three times.\nCells were lysed in RIPA buffer (150 mM NaCl, 50 mM Tris-HCl (pH 8), 1% NP-40, 0.1% SDS, 0.5% deoxycholate acid containing protease inhibitors (mini Complete, Roche)). Samples were divided into two tubes; one was rotated for 4 h at 4° C. with GST-ARTS fusion protein coupled with the glutathione beads, or GST-XIAP fusion protein. The second tube was incubated with glutathione beads alone (negative control). Samples were centrifuged at 4000-RPM at 4° C. for 4 minute and washed five times in lysis buffer, then boiled in sample buffer for 5 minutes to elute bound proteins Proteins were separated on 12.5% SDS-PAGE gel followed by Western blot analysis using monoclonal anti-ARTS antibody (Sigma), monoclonal anti-XIAP antibody (BD Transduction Laboratories) or monoclonal anti-myc antibody (Clontech)."}, "[4]": {"conditions": "Larisch S et al, Nat Cell Biol 2: 915-921, 2000; cited from earlier work"}},
  "data": [
    {"molecule": "COc1cc([C@@H]2c3cc4c(cc3[C@@H](O[C@@H]3O[C@@H]5CO[C@@H](C)O[C@H]5[C@H](O)[C@H]3O)[C@H]3COC(=O)[C@H]23)OCO4)cc(OC)c1O", "note": "[etoposide]", "values": [
      {"measurement": "ARTS-XIAP complexes", "setting": "XIAP [1]; 6 hours of etoposide treatment (100 μM)", "result": "increased further"},
      {"measurement": "ARTS-XIAP complexes", "setting": "XIAP [1]; three hours of etoposide treatment (100 μM)", "result": "a large number of ARTS-XIAP complexes were detected"},
      {"measurement": "ARTS localization", "setting": "COS-7 cells; ARTS-transfected COS-7 cells treated with etoposide, absence of caspase inhibitors", "result": "accumulated ARTS in the nucleus"},
      {"measurement": "ARTS and XIAP co-localization", "setting": "COS-7 cells; 2 hours", "result": "extensive overlap between ARTS and XIAP staining"},
      {"measurement": "ARTS and XIAP co-localization", "setting": "COS-7 cells; 16 hours", "result": "most of the staining for both proteins was confined to the nucleus"}
    ]},
    {"molecule": "CN[C@@H]1C[C@H]2O[C@@](C)([C@@H]1OC)n1c3ccccc3c3c4c(c5c6ccccc6n2c5c31)C(=O)NC4", "note": "[staurosporine, reference compound]", "values": [
      {"measurement": "ARTS-XIAP binding", "setting": "XIAP [2]; COS-7 cells, endogenous proteins, three hours of incubation with staurosporine", "result": "significant increase in ARTS-XIAP binding"},
      {"measurement": "ARTS levels in the cytosol", "setting": "ARTS", "result": "strongly increased"}
    ]},
    {"molecule": "H5: H5 septin protein derived by differential splicing from the same locus as ARTS; considerably larger protein (protein, left off: small tags and cut ends) MDRSLGWQGNSVPEDRTEAGIKRFLEDTTDDGELSKFVKDFSGNASCHPPEAKTWASRPQVPEPRPQAPDLYDDDLEFRPPSRPQSSDNQQYFCAPAPLSPSARPRSPWGKLDPYDSSEDDKEYVGFATLPNQVHRKSVKKGFDFTLMVAGESGLGKSTLVNSLFLTDLYRDRKLLGAEERIMQTVEITKHAVDIEEKGVRLRLTIVDTPGFGDAVNNTECWKPVAEYIDQQFEQYFRDESGLNRKNIQDNRVHCCLYFISPFGHGLRPLDVEFMKALHQRVNIVPILAKADTLTPPEVDHKKRKIREEIEHFGIKIYQFPDCDSDEDEDFKLQDQALKESIPFAVIGSNTVVEARGRRVRGRLYPWGIVEVENPGHCDFVKLRTMLVRTHMQDLKDVTRETHYENYRAQCIQSMTRLVVKERNRNKLTRESGTDFPIPAVPPGTDPETEKLIREKDEELRRMQEMLHKIQKQMKENY", "values": [
      {"measurement": "binding to GST-XIAP", "setting": "XIAP [3]", "result": "Neither ARTSΔC nor H5 were able to bind to XIAP"},
      {"measurement": "binding to XIAP in co-IP", "setting": "XIAP [2]; COS-7 cells co-transfected with pcDNA-mycXIAP and AU5-tagged construct", "result": "Neither of these mutants bound to XIAP"},
      {"measurement": "pro-apoptotic activity", "setting": "[4]", "result": "lacks pro-apoptotic activity"}
    ]}
  ]
}
